The source of these data is patent US10131644B2, “Aryl sultam derivatives as RORc modulators” (Genentech, Inc., priority 2014, dated 2018).

The structures appear in SMILES notation.

In the assay the target is T1, RORc (Homo sapiens, UniProt P51449).
T1 sequence (P51449 269-508 limits assumed): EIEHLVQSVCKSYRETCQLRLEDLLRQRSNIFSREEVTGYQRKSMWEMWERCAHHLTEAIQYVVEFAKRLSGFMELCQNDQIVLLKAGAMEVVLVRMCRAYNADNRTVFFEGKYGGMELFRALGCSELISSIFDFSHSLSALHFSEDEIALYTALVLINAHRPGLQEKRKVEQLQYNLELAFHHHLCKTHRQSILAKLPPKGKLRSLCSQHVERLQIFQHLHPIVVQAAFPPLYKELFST
As to the kind of experiment: In vitro RORc ligand binding assay (25-[3H]hydroxycholesterol displacement). Particulars: IC50, IC50 values for RORc; unit inferred.
Procedure: This assay was used to determine a compound's potency in inhibiting activity of RORc by determining, Kiapp, IC50, or percent inhibition values.
On day of the assay, 100 uL of 0.05% CHAPS (in deionized H2O) was added to all wells of the GFB Unifilter plate and allowed soak for 1 h. A wash buffer of 50 mM HEPES (pH 7.4), 150 mM NaCl, and 5 mM MgCl2 was prepared to wash the filter plate. To prepare an assay buffer, BSA was added to the wash buffer to reach 0.01% and DTT was added to reach 1 mM.
The 20× compound stocks were diluted in DMSO with Assay Buffer 4-fold to reach 5× the final test concentration in 25% DMSO (10 uL compound+30 uL Assay Buffer). Solutions were mixed by aspiration several times with a pipette set on 50 uL volume. For the assay, 10 uL of 5× compound stock solutions in 25% DMSO were added to the assay plate in duplicate.
For two point screening, 10 mM stock compound solutions were diluted in DMSO to obtain 200 uM (20× the high test concentration) and then diluted 10-fold further to reach 20 uM (20× the low test concentration). The 20× stocks were diluted 4-fold with Assay Buffer (10 uL compound+30 uL Assay Buffer) to reach 5× the test concentrations (50 uM and 5 uM) and 10 uL were added to two assay plates for the duplicate wells. With each concentration tested on 2 plates, each set of 80 compounds used 4 assay plates (1 uM and 10 uM, with n=2).
For 25-hydroxycholesterol in 25% DMSO/75% Assay Buffer; 10 uL per well was used for NSB samples. Wells for Total Binding and No Receptor sample determination contained 10 uL of 25% DMSO/75% Assay Buffer per well.
Add 20 uL to all wells to reach 6 nM final in the assay.
Stock receptor solution was diluted in assay buffer to obtain 1.5 ug/mL in Assay Buffer. 20 uL was added to all wells. For No R samples, 20 uL Assay Buffer was substituted for receptor solution.
Assay plates were 96-well polypropylene V-bottom plates. 10 uL of 5× compound in 25% DMSO/75% Assay Buffer was added to Test wells. 10 uL of 25% DMSO/75% Assay Buffer was added to Total Binding or No Receptor wells. 10 uL of 5 uM 25-hydroxycholesterol in 25% DMSO/75% Assay Buffer was added to NSB wells. […] 20 uL of 1.5 ug/mL RORc receptor was added to wells (or 40 uL Assay Buffer to No R wells). Following addition to the wells, the plates were incubated 3 h at 25° C.
Using a Packard Filtermate Harvester, the filter plate were washed 4 times following transfer of the incubated samples. Plates were dry-filtered completely (2 h at 50° C. or overnight at room temperature). 50 uL Microscint 0 was added to all wells and read on Topcount protocol Inverted.
For NSB wells, 1 uM 25-hydroxycholesterol was also present.
Turning to `CC(=O)N(C)CC1(c2ccc(CN3[C@@H](C)CC[C@H](c4ccccc4)S3(=O)=O)c(F)c2)CCOCC1` [Compound 80, N-[[4-[3-fluoro-4-[[(3S,6R)-3-methyl-1,1-dioxo-6-phenyl-thiazinan-2-yl]methyl]phenyl]tetrahydropyran-4-yl]methyl]-N-methyl-acetamide], the IC50 amounted to 0.104 µM.

Compound `C[C@H]1CC[C@H](c2ccccc2)S(=O)(=O)N1Cc1ccc(OCC2(CS(C)(=O)=O)CCOCC2)cc1F` [Example 4, (3S,6R)-2-[2-Fluoro-4-(4-methanesulfonylmethyl-tetrahydro-pyran-4-ylmethoxy)-benzyl]-3-methyl-6-phenyl-[1,2]thiazinane 1,1-dioxide] returned an IC50 of 0.046 µM. This IC50 lies about 2.3-fold lower than the previous one.

On to `C[C@H]1CC[C@H](c2ccccc2)S(=O)(=O)N1Cc1ccc(C2(C#N)CC(=O)C2)cc1F` [Compound 162, 1-[3-fluoro-4-[[(3S,6R)-3-methyl-1,1-dioxo-6-phenyl-thiazinan-2-yl]methyl]phenyl]-3-oxo-cyclobutanecarbonitrile], for which the IC50 is 0.0639 µM.

Take `C[C@H]1CC[C@H](c2ccccc2)S(=O)(=O)N1Cc1ccc([C@]2(CO)CC[C@H](n3cnnc3)CC2)cc1` [Example 14, {1-[4-((3S,6R)-3-Methyl-1,1-dioxo-6-phenyl-[1,2]thiazinan-2-ylmethyl)-phenyl]-4-[1,2,4]triazol-4-yl-cyclohexyl}-methanol]: the IC50 came to 1.8 µM.

In turn, `C[C@H]1CC[C@H](c2ccccc2)S(=O)(=O)N1Cc1ccc([C@]2(C#N)CC[C@@H](n3cnnc3)CC2)cc1F` [Example 20, 1-[3-Fluoro-4-((3S,6R)-3-methyl-1,1-dioxo-6-phenyl-[1,2]thiazinan-2-ylmethyl)-phenyl]-4-[1,2,4]triazol-4-yl-cyclohexanecarbonitrile] had an IC50 of 0.11 µM.

As for `COCCOCC1(c2ccc(CN3[C@@H](C)CC[C@H](c4ccccc4)S3(=O)=O)c(F)c2)CCOCC1` [Compound 82, (3S,6R)-2-[[2-fluoro-4-[4-(2-methoxyethoxymethyl)tetrahydropyran-4-yl]phenyl]methyl]-3-methyl-6-phenyl-thiazinane 1,1-dioxide], the IC50 is 0.0705 µM. This IC50 is about 1.6-fold lower than that of the compound before.

`C[C@H]1CC[C@H](c2ccccc2)S(=O)(=O)N1Cc1cc(F)c(C2(C(N)=O)CC(=O)C2)cc1F` [Compound 193, 1-[2,5-difluoro-4-[[(3S,6R)-3-methyl-1,1-dioxo-6-phenyl-thiazinan-2-yl]methyl]phenyl]-3-oxo-cyclobutanecarboxamide] displayed an IC50 of 0.00807 µM.

Turning to `C[C@H]1CC[C@H](c2ccccc2)S(=O)(=O)N1Cc1cc(F)c(C2(CCC(N)=O)CC2)cc1F` [Compound 139, 3-[1-[2,5-difluoro-4-[[(3S,6R)-3-methyl-1,1-dioxo-6-phenyl-thiazinan-2-yl]methyl]phenyl]cyclopropyl]propanamide], the half-maximal inhibitory concentration (IC50) came out at 0.0237 µM. This IC50 lies about 2.9-fold higher than the previous one.

As for `C[C@H](O)CNC(=O)C1(c2ccc(CN3[C@@H](C)CC[C@H](c4ccccc4)S3(=O)=O)c(F)c2)CCOCC1` [Compound 63, 4-[3-fluoro-4-[[(3S,6R)-3-methyl-1,1-dioxo-6-phenyl-thiazinan-2-yl]methyl]phenyl]-N-[(2S)-2-hydroxypropyl]tetrahydropyran-4-carboxamide], the IC50 was found to be 0.036 µM.

On to `C[C@H]1CC[C@H](c2ccccc2)S(=O)(=O)N1Cc1cc(F)c(C2(CO)CCC(O)CC2)cc1F` (stereo partly drawn) [Compound 130, 4-[2,5-difluoro-4-[[(3S,6R)-3-methyl-1,1-dioxo-6-phenyl-thiazinan-2-yl]methyl]phenyl]-4-(hydroxymethyl)cyclohexanol], for which the IC50 was 0.0347 µM. This IC50 and that of the compound before are within 1.5-fold of each other.

As to `C[C@H]1CC[C@H](c2ccccc2)S(=O)(=O)N1Cc1ccc(C2(COCC(N)=O)CCOCC2)cc1F` [Compound 121], the IC50 stood at 0.016 µM.

In turn, `C[C@H]1CC[C@H](c2ccccc2)S(=O)(=O)N1Cc1ccc(C2(O)CCOCC2)cc1F` [Compound 69, 4-[3-fluoro-4-[[(3S,6R)-3-methyl-1,1-dioxo-6-phenyl-thiazinan-2-yl]methyl]phenyl]tetrahydropyran-4-ol] yielded an IC50 of 0.093 µM.

Take `C[C@H]1CC[C@H](c2ccccc2)S(=O)(=O)N1Cc1ccc(OCC2(C)CCOCC2)cc1F` [Example 2, (3S,6R)-2-[2-Fluoro-4-(4-methyl-tetrahydro-pyran-4-ylmethoxy)-benzyl]-3-methyl-6-phenyl-[1,2]thiazinane 1,1-dioxide]: the IC50 was 0.067 µM.

With `C[C@H]1CC[C@H](c2ccccc2)S(=O)(=O)N1Cc1ccc([C@]2(C#N)CC[C@@H](NC=O)CC2)cc1` [Example 19, N-{4-Cyano-4-[4-((3S,6R)-3-methyl-1,1-dioxo-6-phenyl-[1,2]thiazinan-2-ylmethyl)-phenyl]-cyclohexyl}-formamide], the IC50 was 0.31 µM.

Regarding `C[C@H]1CC[C@H](c2ccccc2)S(=O)(=O)N1Cc1ccc(C2([C@@H](O)CO)CCOCC2)cc1F` [Compound 98, (1R)-1-[4-[3-fluoro-4-[[(3S,6R)-3-methyl-1,1-dioxo-6-phenyl-thiazinan-2-yl]methyl]phenyl]tetrahydropyran-4-yl]ethane-1,2-diol], the IC50 is 0.063 µM.

In the case of `C[C@H]1CC[C@@H](c2ccccc2)S(=O)(=O)N1Cc1cc(F)c(C2(CO)CCC(O)CC2)cc1F` (some centres unmarked) [Compound 132], the IC50 came to 0.24 µM. This IC50 lies about 3.8-fold higher than the previous one.

As for `C[C@H]1CC[C@H](c2ccccc2)S(=O)(=O)N1Cc1ccc(C2([C@H](O)CO)CCOCC2)cc1F` [Compound 103, (1S)-1-[4-[3-fluoro-4-[[(3S,6R)-3-methyl-1,1-dioxo-6-phenyl-thiazinan-2-yl]methyl]phenyl]tetrahydropyran-4-yl]ethane-1,2-diol], the IC50 turned out to be 0.0689 µM.

Compound `C[C@H]1CC[C@H](c2ccccc2)S(=O)(=O)N1Cc1ccc([C@]2(C#N)C[C@H](O)C2)cc1F` [Compound 178, 1-[3-fluoro-4-[[(3S,6R)-3-methyl-1,1-dioxo-6-phenyl-thiazinan-2-yl]methyl]phenyl]-3-hydroxy-cyclobutanecarbonitrile] registered an IC50 of 0.0441 µM. Compared with the last compound, the IC50 is about 1.6-fold lower.

On to `C[C@H]1CC[C@H](c2ccccc2)S(=O)(=O)N1Cc1ccc(C2(CCCO)CCOCC2)cc1F` [Compound 81, 3-[4-[3-fluoro-4-[[(3S,6R)-3-methyl-1,1-dioxo-6-phenyl-thiazinan-2-yl]methyl]phenyl]tetrahydropyran-4-yl]propan-1-ol], for which the IC50 came to 0.0062 µM.

In turn, `CC(=O)N1CCC(OCC(O)CO)(c2cc(F)c(CN3[C@@H](C)CC[C@H](c4ccccc4)S3(=O)=O)cc2F)CC1` (stereo in doubt) [Compound 169, 1-[4-[2,5-difluoro-4-[[(3S,6R)-3-methyl-1,1-dioxo-6-phenyl-thiazinan-2-yl]methyl]phenyl]-4-[(2R)-2,3-dihydroxypropoxy]-1-piperidyl]ethanone] displayed an IC50 of 0.0208 µM.

On to `C[C@H]1CC[C@H](c2ccccc2)S(=O)(=O)N1Cc1ccc(C2(C(=O)NCCN(C)C)CCOCC2)cc1F` [Compound 53, N-[2-(dimethylamino)ethyl]-4-[3-fluoro-4-[[(3S,6R)-3-methyl-1,1-dioxo-6-phenyl-thiazinan-2-yl]methyl]phenyl]tetrahydropyran-4-carboxamide], for which the IC50 stood at 0.845 µM.

In turn, `C[C@H]1CC[C@H](c2ccccc2)S(=O)(=O)N1Cc1ccc(C2(C(=O)NCCCN)CCOCC2)cc1F` [Compound 55, N-(3-aminopropyl)-4-[3-fluoro-4-[[(3S,6R)-3-methyl-1,1-dioxo-6-phenyl-thiazinan-2-yl]methyl]phenyl]tetrahydropyran-4-carboxamide] displayed an IC50 of 0.913 µM.

Regarding `C[C@H]1CC[C@H](c2ccccc2)S(=O)(=O)N1Cc1ccc(C2(C(=O)NCC#N)CCOCC2)cc1F` [Compound 57, N-(cyanomethyl)-4-[3-fluoro-4-[[(3S,6R)-3-methyl-1,1-dioxo-6-phenyl-thiazinan-2-yl]methyl]phenyl]tetrahydropyran-4-carboxamide], the IC50 was found to be 0.0802 µM.

With `C[C@H]1CC[C@H](c2ccccc2)S(=O)(=O)N1Cc1ccc([C@]2(C(=O)N(C)C)CC[C@H](n3cnnc3)CC2)cc1` [Example 16, 1-[4-((3S,6R)-3-Methyl-1,1-dioxo-6-phenyl-[1,2]thiazinan-2-ylmethyl)-phenyl]-4-[1,2,4]triazol-4-yl-cyclohexanecarboxylic acid dimethylamide], the IC50 is 2.4 µM.

For the compound `C[C@H]1CC[C@H](c2ccccc2)S(=O)(=O)N1Cc1cc(F)c(C2(OCC(O)CO)CCOCC2)cc1F` (stereo in doubt) [Compound 171, (2R)-3-[4-[2,5-difluoro-4-[[(3S,6R)-3-methyl-1,1-dioxo-6-phenyl-thiazinan-2-yl]methyl]phenyl]tetrahydropyran-4-yl]oxypropane-1,2-diol], the IC50 is 0.0116 µM.

On to `CC(=O)N1CCC(O)(c2ccc(CN3[C@@H](C)CC[C@H](c4ccccc4)S3(=O)=O)cc2)CC1` [Example 7, 1-{4-Hydroxy-4-[4-((3S,6R)-3-methyl-1,1-dioxo-6-phenyl-[1,2]thiazinan-2-ylmethyl)-phenyl]-piperidin-1-yl}-ethanone], for which the IC50 amounted to 0.33 µM. This IC50 is about 28-fold higher than that of the compound before.

In turn, `C[C@H]1CC[C@H](c2ccccc2)S(=O)(=O)N1Cc1ccc(OCC2(C#N)CCOCC2)cc1F` [Example 6, 4-{3-Fluoro-4-((3S,6R)-3-methyl-1,1-dioxo-6-phenyl-[1,2]thiazinan-2-ylmethyl)-phenoxymethyl]-tetrahydro-pyran-4-carbonitrile] displayed an IC50 of 0.22 µM. This IC50 is about 1.5-fold lower than that of the compound before.

With `CNC(=O)CCC1(c2cc(F)c(CN3[C@@H](C)CC[C@H](c4ccccc4)S3(=O)=O)cc2F)CC1` [Compound 146, 3-[1-[2,5-difluoro-4-[[(3S,6R)-3-methyl-1,1-dioxo-6-phenyl-thiazinan-2-yl]methyl]phenyl]cyclopropyl]-N-methyl-propanamide], the 50% inhibitory concentration (IC50) is 0.0327 µM. This IC50 is about 6.7-fold lower than that of the compound before.

On to `CC(OC1(c2ccc(CN3[C@@H](C)CC[C@H](c4ccccc4)S3(=O)=O)c(F)c2)CCOCC1)C(N)=O` (stereo partly drawn) [Compound 174, 2-[4-[3-fluoro-4-[[(3S,6R)-3-methyl-1,1-dioxo-6-phenyl-thiazinan-2-yl]methyl]phenyl]tetrahydropyran-4-yl]oxypropanamide], for which the IC50 was found to be 0.0379 µM.

Broadly, the IC50 is the concentration at which inhibition is half-maximal.
